Measurements reported in patent US20240216354A1, “IMMUNOMODULATORY IMIDE DRUGS AS ZETA-CHAIN-ASSOCIATED PROTEIN KINASE 70 (ZAP70) AGONISTS AND USES THEREOF” (Dana-Farber Cancer Institute, Inc., priority 2019, published 2024).

Tests used:
Zap-70 [1] = target: T1, Zap-70 (Homo sapiens, UniProt P43403); test: PathScan Phospho-Zap-70 (Tyr319) Sandwich ELISA in Jurkat cells; type: cell-based; conditions: lenalidomide (1 and 3 μM) or pomalidomide (1 and 3 μM), 4 h and 8 h, Len<Pom
T1 sequence (P43403 1-619): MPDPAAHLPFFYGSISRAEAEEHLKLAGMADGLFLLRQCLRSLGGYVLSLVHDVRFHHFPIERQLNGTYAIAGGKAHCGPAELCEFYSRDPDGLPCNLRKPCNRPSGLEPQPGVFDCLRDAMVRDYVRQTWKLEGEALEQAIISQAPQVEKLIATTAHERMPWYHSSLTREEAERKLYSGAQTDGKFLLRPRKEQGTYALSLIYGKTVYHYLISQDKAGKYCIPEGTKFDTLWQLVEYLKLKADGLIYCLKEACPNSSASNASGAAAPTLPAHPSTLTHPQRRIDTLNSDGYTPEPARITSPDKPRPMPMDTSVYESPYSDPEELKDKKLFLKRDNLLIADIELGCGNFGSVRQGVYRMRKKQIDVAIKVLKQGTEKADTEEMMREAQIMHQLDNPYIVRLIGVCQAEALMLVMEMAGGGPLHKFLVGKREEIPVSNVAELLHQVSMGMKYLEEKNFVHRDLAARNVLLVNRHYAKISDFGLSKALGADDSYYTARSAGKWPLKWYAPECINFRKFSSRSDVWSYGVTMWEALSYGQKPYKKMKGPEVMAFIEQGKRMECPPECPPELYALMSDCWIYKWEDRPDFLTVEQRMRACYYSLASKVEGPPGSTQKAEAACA
Method: (A) Jurkat cells were transfected with scrambled (Sc) siRNA or Zap-70 siRNA. Whole cell lysates were subjected to immunoblotting using indicated Abs. (B) Jurkat cells were treated with lenalidomide ([…]) or pomalidomide (1 and 3 μM) for 4 h and 8 h. Whole cell lysates were subjected to p-Zap ELISA assay. (C) Jurkat whole cell lysates were incubated with pomalidomide-beads in the presence or absence of competitor (1 mM free pomalidomide) for 1 h. After elution, samples were subjected to immunoblotting using anti-Zap-70 Ab. (D) Saturation-transfer difference resulting from the binding of pomalidomide to Zap-70. Pomalidomide is at 320 μM and Zap-70 is approximately 2 μM in deuterated PBS solution. […] (E) Saturation-transfer difference resulting from the binding of pomalidomide to Zap-70 in the presence of 2.56 mMATP. Pomalidomide is at 320 μM and Zap-70 is approximately 2 μM in deuterated PBS solution. […] Note that both ATP and pomalidomide show binding the Zap-70. (F) Non-cell based Zap-70 kinase assay was carried out, according to manufacturer's protocol.
Phosphorylation of Zap-70 was evaluated using PathScan Phospho-Zap-70 (Tyr319) Sandwich ELISA Kit (Cell Signaling Technology), according to manufacturer's protocol.

granzyme-B (GZM-B) = test: GZM-B expression in KHYG-1 cells (immunoblotting, real-time qPCR); type: cell-based; conditions: pomalidomide 0.25-1 μM, 24 h
Method: (A) KHYG1 cells were cultured with pomalidomide (0.25-1 μM) for 24 h. (B) Isolated primary NK cells from healthy volunteers (#1, #2) were cultured with pomalidomide (0.3-1 μM) for 24 h. (C) KHYG-1 cells were transfected with Scsi or Zap-70si. After 48 h, cells were cultured for 24 h in the absence or presence (0.5 μM) of pomalidomide. Whole cell lysates and RNAs were subjected to immunoblotting using indicated Abs.
(A) KHYG-1 cells were transfected with Scsi or CRBNsi. After 48 h, cells were cultured in the absence or presence of pomalidomide (0.5 μM) for 24 h, and cell lysates immunoblotted with indicated Abs. (B) KHYG-1 cells were transfected with Scsi or Zap-70si, and then cultured for 72 h with pomalidomide (0.25 μM), in the absence of IL-2. Cells were counted and incubated with calcein AM-labeled U266 for 4 h at indicated effector/target (E/T) ratios.
(A) KHYG-1 cells were transfected with CRBN, IKZF1, or IKZF3 siRNA. The transfectants were then cultured for 24 h with pomalidomide (0.5 μM). The arrow indicates CRBN. (B) KHYG-1 cells were cultured with pomalidomide for 24 h (0.5 μM), in the presence or absence of bortezomib (BTZ; 2.5 and 5 nM). (C, D) KHYG-1 cells were cultured for 24 h with lenalidomide, pomalidomide, or CC-220 (i.e., iberdomide) (0.01-1 μM). Whole cell lysates and RNAs were subjected to immunoblotting using indicated Abs (C) and real-time q-PCR (D), respectively.

U266 cells = test: Primary NK cell cytolytic activity against calcein AM-labeled U266; type: cell-based, human; conditions: primary NK cells #1, #2, pomalidomide 0.25-1 μM 24 h, E/T 5/1 and 10/1
Method: (§1) KHYG-1 cells were cultured with pomalidomide (0.25-1 μM) for 24 h. (A) Whole cell lysates were subjected to immunoblotting using indicated Abs. (B) KHYG-1 cells were incubated with calcein-AM-stained U266 cells for 4 h at the indicated effector/target (E/T) ratios. Percent specific lysis was calculated as described previously. (C) KHYG-1 cells were transfected with Scsi or Zap-70si, and then cultured with pomalidomide (0.25 μM) for 72 h in the absence of IL-2. Viable cell number was determined, and cells were then incubated with calcein AM-labeled U266 target cells for 4 h at indicated effector/target (E/T) ratios. Percent specific lysis was calculated as described previously. (D) After transfection with Scsi or Zap-70si, cells were cultured with lenalidomide or pomalidomide for 72 h. Cell growth was assessed by MTT assay. (E) KHYG-1 cells were transfected with scrambled (Scsi) or CRBNsi. The transfectants were then cultured with pomalidomide (0.5 μM) for 24 h, and whole cell lysates were subjected to immunoblotting using indicated Abs. The arrow indicates CRBN expression. (F) Primary NK cells (#1, #2, #3, #4) were isolated from healthy volunteer's PBMCs, as described in Materials and Methods. NK cells were cultured with pomalidomide (0.5 μM) for 24 h, and whole cell lysates were subjected to immunoblotting using indicated Abs. […] Percent specific lysis was calculated as previously described.

Zap-70 [2] = target: T1, Zap-70; test: Immunoblotting of p-Zap-70 in primary NK cells from healthy volunteers; type: cell-based; parameters: endogenous in cells; host or cells: primary PBMCs, primary T cells and primary NK cells from healthy volunteers; conditions: primary NK cells #1-#4, pomalidomide 0.5 μM, 24 h
Method: as §1

p-Zap-70 (immunoblotting) (Zap-70 [2]): upregulated p-Zap-70 in primary NK cells
SMILES: Nc1cccc2c1C(=O)N(C1CCC(=O)NC1=O)C2=O (stereo not shown) [pomalidomide]
p-Zap-70 (Tyr319) by ELISA (Zap-70 [1]): increased p-Zap-70 (Tyr319) in a dose-dependent fashion | GZM-B expression (granzyme-B (GZM-B)): upregulated GZM-B expression | NK cytolytic activity against U266 cells (U266 cells): significantly enhanced their NK cytolytic activity against U266 cells
